Measurements published in US10660932B2, “Drug combinations and methods to stimulate embryonic-like regeneration to treat diabetes and other diseases” (UNIVERSITY OF SOUTHERN CALIFORNIA, priority 2016, dated 2020).

Experiments:
Format in all cases: cell-based
[1] = test system: human pancreatic islets from T1D subjects (T1DI); test: Human pancreatic islet treatments and qPCR, T1D islets (T1DI)
Description: (§1) To investigate how the fasting mimicking conditions affect Ngn3 expression and β-cell functions in human pancreatic cells, we performed ex vivo experiments using primary human pancreatic islets (FIG. 6A). Briefly, the pancreatic islets from healthy and T1D subjects (HI and T1DI, respectively) were cultured according to the manufacturer's instructions. The cultured islets were then treated with serum from subjects enrolled in a clinical trial testing the effects of a low protein and low calorie FMD lasting 5 days (NCT02158897)^17. Serum samples were collected at baseline and at day 5 of the fasting mimicking diet in 5 subjects.
(§2) In cells from normal human subjects, these effects were reversed by IGF-1 treatment (FIG. 6G). […]
(§3) Cells were treated for 36 h with: Standard medium: Celprogen, M35002-045 for healthy islets and M35001-035 for T1D islets). […] Total RNA was extracted using RNeasy Mini kit (Qiagen) according to the manufacturer's instructions and quantified with the use of the Nanodrop system (Thermo Scientific, Waltham, Mass., USA). […] The expression level were analyzed by quantitative real-time polymerase chain reaction (PCR) on a Roche LightCycler 480II . Gene expression was quantified using the comparative Ct method.

[2] = test system: human pancreatic islets from healthy subjects (HI); test: Human pancreatic islet treatments and qPCR, healthy islets (HI); conditions: cells from normal human subjects, STS medium with IGF-1 40 ng/ml
Description: as §1, §2, §3

PKA = PKA activity in human pancreatic islets; conditions: STS medium with IGF-1 40 ng/ml
Description: It also dampened the activity of mTOR, which is a key mediator of amino acid signaling (FIG. 6I). To further investigate the role of these nutrient sensing signaling pathways in regulating the expression of lineage markers (i.e. Sox2 and Ngn3), we tested the role of the Tor-S6K and PKA pathways, which function downstream of IGF-1, in the reprogramming of pancreatic cells. Human pancreatic islets cultured in standard medium were treated with rapamycin, which inhibits mTOR, and H89, which inhibits PKA. mTOR and PKA were implicated by our group and others in the regeneration of other cell types (Cheng et al., 2014; Yilmaz et al., 2012).
as §3
PKA activity was measured using the PKA kinase activity kit (Enzo Life Science, Inc. Farmingdale, N.Y., USA) according to manufacturer instructions.

Compound | expression of lineage markers Sox2 and Ngn3 ([1]; T1DI in standard medium, 36 h, Rapamycin 20 nM, H89 20 uM) | effect on STS-induced expression of Sox2, Ngn3 and insulin [2] | effect on STS-increased insulin and Sox 2 gene expression ([1]; human T1D cells, STS medium with IGF-1 40 ng/ml) | effect on STS-reduced PKA activity (PKA; T1D human islets) | effect on STS-reduced PKA activity (PKA; healthy human islets)
O=S(=O)(NCCNC/C=C/c1ccc(Br)cc1)c1cccc2cnccc12 [H89, reference compound] | not induced |  |  |  | 
IGF-1: IGF1 (40 ng/ml) (ProSpec), growth factor added to STS medium |  | reversed | reversed | reversed | reversed
